# In US20240024280A1, “SENOTHERAPEUTIC SUBSTANCE” (BIONEXA S.R.L, priority 2020, published 2024):
# Tested on: senescent MCF7 cells
# Test: Senolytic activity on doxorubicin-induced senescent MCF7 cells (crystal violet cell survival)
# Type: cell-based, human
# Details: 72 h treatment; vitamin C and palmitic acid administered alone at the same doses investigated
# Description: Briefly, senescence of MCF7 human mammary epithelium cells (human breast adenocarcinoma cells, ATCC® HTB-22™) was induced in vitro by treatment with doxorubicin (for 24 h), at a non-apoptotic concentration (200 nM), and subsequent cell recovery (in optimal culture medium, without treatments) for 10 days. The successful conversion to the senescent cell phenotype was confirmed by morphological changes (flattening and cell enlargement) and positivity for lysosomal beta-galactosidase (β-GAL). The SA-β-GAL (senescence-associated p-GAL) senescence assay was performed with the SA-β-Gal Staining Kit (Cell Signaling Technology, Inc., Danvers, MA). In this case, after fixation with […] for 15 min at room temperature, the senescent cells were quantified by calculating the percentage of SA-β-GAL positive cells (colored blue) present in culture, examining ≥200 cells per well with the phase contrast microscope EVOS XL Cell Imaging System (Thermo Fisher; objective, 40×). […] At the end of the treatments, cell survival was quantified by crystal violet staining. […] After further washing with water (3×), 100 μl of acetic acid (10%) were added per well and the absorbance (λ=590 nm) measured with a Synergy spectrophotometer (AHSI). […] Senolytic activity was expressed as % of senescent cells eliminated with respect to the control condition (DMSO). […]
row,Structure (SMILES),senolytic effects (in words)
1,CCCCCCCCCCCCCCCC(=O)O [palmitic acid],absence of significant senolytic effects
2,"O=C1O[C@H]([C@@H](O)CO)C(O)=C1O [vitamin C, L-Ascorbic Acid]",absence of significant senolytic effects
